Assay results as given in patent US5408036A, “Isolated metallopolypeptide: compositions and synthetic methods” (The Scripps Research Institute, priority 1993, dated 1995).
Residues, ends and D or L forms follow the SMILES beside them.

What was measured:
[1] = Circular dichroism (CD) to measure degree of secondary structure (alpha-helicity); format: physicochemical; settings: for helicity / θ: using Cu(II)
Protocol: ID No's. 3 and 4. The analysis was performed as described above.
Proton nuclear magnetic resonance spectra were recorded at 300MHz on Bruker AM300 spectrometer and are reported in parts per million (ppm) downfield from Me4 Si. Ultraviolet-visible spectra were recorded on Aviv Associates 14DS and Milton Roy Spectronic 3000 Array spectrometers. Circular dichroism measurements were made on Aviv Associates 62DS spectrometer equipped with a thermostable cell holder using 10, 1, and 0.1 mm Hellma quartz cells. All reported CD data have an uncertainty of ±2-5%. All ellipticity measurements are expressed as mean residue ellipticity, [θ], having the units deg·cm^2 ·dmol-^1.

[2] = Heat denaturation assay to measure melting temperatures; format: physicochemical
Protocol: In order to assess differences in helix stability between the metal ion complexed and uncomplexed forms of peptides Seq. ID No's. 3 and 4, the conformational stability of each peptide in the presence and absence of transition metal ions was determined from heat denaturation studies according to published procedures. Pace et al., In Protein structure, p. 311., IRL Press, (1989). The analysis of the thermal denaturation curves afforded linear ΔG vs. T and van't Hoff plots. […] Complexed peptides Seq. ID No's.
Because tris-bipyridyl-metal ion coordination complexes are chiral and can form either a left-handed or a right-handed helix, two diastereomeric tri-helical structures can possibly be formed. The stereogenic environment of the ensuing parallel tri-helical topology as well as the geometrical constraints imposed by the overall C3 symmetry of the coordination complex was expected, however, to enforce a high degree of diastereoselectivity in the assembly process. The CD spectrum (in the region of 280 and 330 nm) of the peptide in the presence of Ni(II) indicated the formation of one diastereomer having a left-handed helical configuration. Such a behavior is also consistent with the expected left handed supercoil of the tri-helical metallopolypeptide. The analysis of the thermal denaturation curves for the metallopolypeptide in the presence of Ni(II) yielded linear ΔG vs T and van't Hoff plots.

[3] = Metal ion selectivity and relative affinities by CD analysis; format: binding; settings: for metal ions bound, order of affinity: peptide SEQ ID NO:11 at pH 6.0; for metal ion(s) that preferentially stabilize the peptide: summary of Example 3A(2), 3A(3)
Description: Metal ion selectivity is an expected consequence of site specific metal-ligand interaction. The extent of helical induction, to a first approximation, depends on the affinity of metal ion toward the ligands employed, and on the compatibility of metal ion geometry and coordination sphere with the alpha-helical conformation. Thus, although numerous metal ions can induce and stabilize alpha-helix formation, the metal ion having the greatest relative affinity for the ligands employed is preferred and can readily be determined. […]
Peptides, prepared as in Example 1, and admixed with various metal salt solutions as described in Example 2B, were subjected to CD analysis to characterize metal ion selectivity with respect to the position of the metal binding site in the alpha-helical sequence.

Compound: CC(=O)N[C@@H](C)C(=O)N[C@@H](CCC(=O)O)C(=O)N[C@@H](C)C(=O)N[C@@H](C)C(=O)N[C@@H](C)C(=O)N[C@@H](CCCCN)C(=O)N[C@@H](Cc1c[nH]cn1)C(=O)N[C@@H](C)C(=O)N[C@@H](C)C(=O)N[C@@H](C)C(=O)N[C@@H](Cc1c[nH]cn1)C(=O)N[C@@H](CCC(=O)O)C(=O)N[C@@H](C)C(=O)N[C@@H](C)C(=O)N[C@@H](C)C(=O)N[C@@H](CCCCN)C(=O)N[C@@H](C)C(N)=O [peptide SEQ ID NO:4, Ac--Ala--Glu--Ala--Ala--Ala--Lys--His--Ala--Ala--Ala--His--Glu--Ala--Ala--Ala--Lys--Ala--CONH2] (Ac-AEAAAKHAAAHEAAAKA-NH2)
- CD spectrum, structure indicated ([1]; room temperature in water): random coil structure
- melting temperature (Tm) [2]: -15.5 °C
- metal ions bound, order of affinity ([3]; CD analysis): Ni(II) and Cu(II) predominantly followed by Cd(II) then Zn(II)
- metal ion(s) that preferentially stabilize the peptide [3]: Ni(II)

Compound: CC(=O)N[C@@H](C)C(=O)N[C@@H](Cc1c[nH]cn1)C(=O)N[C@@H](C)C(=O)N[C@@H](C)C(=O)N[C@@H](C)C(=O)N[C@@H](Cc1c[nH]cn1)C(=O)N[C@@H](CCC(=O)O)C(=O)N[C@@H](C)C(=O)N[C@@H](C)C(=O)N[C@@H](C)C(=O)N[C@@H](CCCCN)C(=O)N[C@@H](CCC(=O)O)C(=O)N[C@@H](C)C(=O)N[C@@H](C)C(=O)N[C@@H](C)C(=O)N[C@@H](CCCCN)C(=O)N[C@@H](C)C(N)=O [peptide SEQ ID NO:5, Ac--Ala--His--Ala--Ala--Ala--His--Glu--Ala--Ala--Ala--Lys--Glu--Ala--Ala--Ala--Lys--Ala--CONH2] (Ac-AHAAAHEAAAKEAAAKA-NH2)
- binding of Cd(II) or Zn(II) ([3]; CD analysis): no significant binding
- metal ions bound, order of affinity ([3]; CD analysis): Ni(II) and Cu(II) in descending order of affinity
- metal ion(s) that preferentially stabilize the peptide [3]: Ni(II)

Compound: Ru(III)-peptide SEQ ID NO:3 complex: exchange-inert macrocyclic cis-[Ru(NH3)4 (L)2 ]^3+ complex of peptide SEQ ID NO:3 through two His residues at i and i+4 (AEAAAKEAAAKHAAAHA; Ru(III) tetraammine macrocyclic complex via two His)
- alpha-helicity ([1]; room temperature in water): > 80%
- θ222 ([1]; room temperature in water): -28,000
- melting temperature (Tm) [2]: 35 °C

Compound: Ac--Ala--Ala--Xaa2 --Ala--Leu--Glu--Xaa2 --Gln--Ala--Lys--Ala--Leu--Lys--Glu--Ala--Ala--Gln--Lys--Ala--CONH2 [peptide SEQ ID NO:11, Xaa2 = (NH2)(CO2 H)CH(CH2)3 N(CH2 CO2 H)2]
- helicity ([1]; 0° C.): about 100%
- θ ([1]; 0° C.): 35,600
- helicity ([1]; 20° C.): about 80%
- θ ([1]; 20° C.): 29,300
- metal ions bound, order of affinity ([3]; CD analysis): Cu(II), Hg(II), Cd(II), Fe(II), Zn(II) and Pb(II) in descending order of affinity
- metal ion(s) that preferentially stabilize the peptide [3]: Cu(II)
